Series [1] concerns the target T1, Recombinant human CD38 (Homo sapiens, UniProt P28907).
T1 sequence (P28907 1-300): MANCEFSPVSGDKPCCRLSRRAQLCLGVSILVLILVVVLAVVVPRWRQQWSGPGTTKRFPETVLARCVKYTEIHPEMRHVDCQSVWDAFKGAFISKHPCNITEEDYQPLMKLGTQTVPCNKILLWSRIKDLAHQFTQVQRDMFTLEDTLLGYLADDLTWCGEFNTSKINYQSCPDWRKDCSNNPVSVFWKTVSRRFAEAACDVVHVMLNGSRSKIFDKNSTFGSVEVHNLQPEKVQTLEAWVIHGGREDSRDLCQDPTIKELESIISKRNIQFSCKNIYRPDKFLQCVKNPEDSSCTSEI
Put plainly: Human CD38 hydrolase assay (fluorescence-based, ε-NAD substrate). In kind it is biochemical. As to conditions: recombinant human CD38 0.8 nM, 4 μM ε-NAD, 30 min preincubation at 25° C. The essentials: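 Recombinant human CD38 (0.8 nM) preincubated 30 min at 25 °C with compound in PBS without Ca2+/Mg2+, 0.005% BSA, pH 7.4; reaction started with 4 μM ε-NAD. Fluorescence (ex 300/em 410 nm) change over 10 min converted to percent inhibition against tool-inhibitor controls; IC50 from 10-point half-log curves, four-parameter fit.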

Series [2] in a line: Tissue binding assay (equilibrium dialysis), plasma. In kind it is in vitro ADME. As to conditions: mouse plasma, dialysis 4 hours at 37° C., pH 7.4. The method, then: [Worded in the source for another target; this target is reported under the same test.] Buffer preparation. A basic solution was prepared by dissolving 14.2 g/L Na2HPO4 and 8.77 g/L NaCl in deionized H2O. An acidic solution was prepared by dissolving 15.6 g/L NaH2PO4·2H2O and 8.77 g/L NaCl in deionized H2O. Using the acidic solution, the basic solution was then titrated to pH 7.4±0.1 and stored at 4° C. for up to 1 month. The stop solution was 100% CH3CN containing 200 ng/ml tolbutamide, 200 ng/ml labetalol and 50 ng/ml metformin.
Test method. Dialysis membrane strips were soaked in ultra-pure water at room temperature for ~1 hour. Each membrane strip containing 2 membranes was separated and soaked in 20:80 EtOH/H2O (v/v) for ~20 min, after which they were ready for use or were stored in the solution at 2-8° C. for up to 1 month. Prior to the experiment, the membrane was rinsed and soaked for 20 min in ultra-pure water. On the day of experiment, brain homogenate was thawed in a water bath at room temperature and incubated at 37° C. for 10 min before use. Test and control compounds were dissolved in DMSO to achieve 10 mM stock solutions. DMSO working solutions were prepared at 400 μM by diluting 10 μL of stock solution. To prepare the time zero (t=0) samples to be used for recovery determination, 50 μL aliquots of loading matrix were transferred in triplicate to the sample collection plate. The samples were immediately matched with opposite blank buffer to obtain a final volume of 100 μL of 1:1 matrix/dialysis buffer (v/v) in each well. 500 μL of stop solution were added to these t=0 samples. They were then stored at 2-8° C. pending further processes along with other post-dialysis samples. To load the dialysis device, an aliquot of 150 μL of the loading matrix was transferred to the donor side of each dialysis well in triplicate, and 150 μL of the dialysis buffer was loaded to the receiver side of the well. The dialysis plate was placed in a humidified incubator at 37° C. with 5% CO2 on a shaking platform that rotated slowly (about 100 rpm) for 4 hours. At the end of the dialysis, aliquots of 50 μL of samples were taken from both the buffer side and the matrix side of the dialysis device. These samples were transferred into new 96-well plates. Each sample was mixed with an equal volume of opposite blank matrix (buffer or matrix) to reach a final volume of 100 μL of 1:1 matrix/dialysis buffer (v/v) in each well. All samples were further processed by adding 500 μL of stop solution containing internal standards. The mixture was vortexed and centrifuged at 4000 rpm for about 20 min. An aliquot of 100 μL of supernatant of all the samples was then removed for LC-MS/MS analysis. The single blank samples were prepared by transferring 50 μL of blank matrix to a 96-well plate and adding 50 μL of blank PBS buffer to each well. Then the matrix-matched samples were further processed by adding 500 μL of stop solution containing internal standards, following the same sample processing method as the dialysis samples.
Data analysis. The % undiluted unbound, % undiluted bound and % recovery were calculated using the following equations: […]
where F is the analyte concentration or peak area ratio of analyte/internal standard on the buffer (receiver) side of the membrane; T is the analyte concentration or peak area ratio of analyte/internal standard on the matrix (donor) side of the membrane; To is the analyte concentration or the peak area ratio of analyte/internal standard in the loading matrix sample at time zero; and D is the dilution factor determined as 4 in this assay.

Structures are written as SMILES.

With `O=C(N[C@H]1CC[C@H](NCC(F)(F)F)CC1)c1nc(-n2ccnc2)nc2ncccc12` [Example 4, 2-(1H-imidazol-1-yl)-N-((1r,4r)-4-((2,2,2-trifluoroethyl)amino)cyclohexyl)pyrido[2,3-d]pyrimidine-4-carboxamide], in series [1], the half-maximal inhibitory concentration (IC50) was no more than 0.04 µM. The fraction unbound at 4 h in series [2] was determined as 0.4.
For `O=C(N[C@H]1CC[C@H](N2CCC(F)(F)C2)CC1)c1nc(-n2ccnc2)nn2cccc12` [Example 12, N-((1r,4r)-4-(3,3-difluoropyrrolidin-1-yl)cyclohexyl)-2-(1H-imidazol-1-yl)pyrrolo[2,1-f][1,2,4]triazine-4-carboxamide] the same measures were no more than 0.04 µM and 0.062.
As to `O=C(N[C@H]1CC[C@H](N2CC[C@H](F)C2)CC1)c1nc(-n2ccnc2)nn2cccc12` [Example 13, N-((1S,4r)-4-((S)-3-fluoropyrrolidin-1-yl)cyclohexyl)-2-(1H-imidazol-1-yl)pyrrolo[2,1-f][1,2,4]triazine-4-carboxamide], the concentration for half-maximal inhibition (IC50) in series [1] is no more than 0.04 µM. Also, in series [2], the fraction unbound at 4 h is 0.22.
For `O=C(N[C@H]1CC[C@H](N2CC[C@@H](F)C2)CC1)c1nc(-n2ccnc2)nn2cccc12` [Example 14, N-((1R,4r)-4-((R)-3-fluoropyrrolidin-1-yl)cyclohexyl)-2-(1H-imidazol-1-yl)pyrrolo[2,1-f][1,2,4]triazine-4-carboxamide] the same measures were no more than 0.04 µM and 0.24.
Taken in the same sequence, the figures for `O=C(N[C@H]1CC[C@H](NCC(F)(F)F)CC1)c1cn2ccnc2c(-n2ccnc2)n1` [Example 19, 8-(1H-imidazol-1-yl)-N-((1r,4r)-4-((2,2,2-trifluoroethyl)amino)cyclohexyl) imidazo[1,2-a]pyrazine-6-carboxamide] were no more than 0.04 µM and 0.19.
Taken in the same sequence, the figures for `O=C(N[C@H]1CC[C@H](NCC(F)(F)F)CC1)c1cn2ncnc2c(-n2ccnc2)n1` [Example 20, 8-(1H-imidazol-1-yl)-N-((1r,4r)-4-((2,2,2-trifluoroethyl)amino)cyclohexyl)-[1,2,4]triazolo[1,5-a]pyrazine-6-carboxamide] were no more than 0.04 µM and 0.14.
Turning to `O=C(N[C@H]1CC[C@H](NCC(F)(F)F)CC1)c1cn2nccc2c(-n2ccnc2)n1` [Example 21, 4-(1H-imidazol-1-yl)-N-((1r,4r)-4-((2,2,2-trifluoroethyl)amino)cyclohexyl)pyrazolo[1,5-a]pyrazine-6-carboxamide], in series [1], the IC50 is no more than 0.04 µM. In series [2], this compound registered an unbound share (fraction unbound) at 4 h of 0.3.
For `O=C(N[C@H]1CC[C@H](NCC(F)(F)F)CC1)c1nc(-n2ccnc2)nn2cccc12` [Example 29, 2-(1H-imidazol-1-yl)-N-((1r,4r)-4-((2,2,2-trifluoroethyl)amino)cyclohexyl)pyrrolo[2,1-f][1,2,4]triazine-4-carboxamide] the same measures were no more than 0.04 µM and 0.044.
For `O=C(N[C@H]1CC[C@H](N2CCC(F)(F)C2)CC1)c1cn2ccnc2c(-n2ccnc2)n1` [Example 41, N-((1r,4r)-4-(3,3-difluoropyrrolidin-1-yl)cyclohexyl)-8-(1H-imidazol-1-yl) imidazo[1,2-a]pyrazine-6-carboxamide] the same measures were no more than 0.1 µM and 0.2.
Taken in the same sequence, the figures for `O=C(N[C@H]1CC[C@H](N2CC(F)(F)C2)CC1)c1cn2ncnc2c(-n2ccnc2)n1` [Example 45, N-((1r,4r)-4-(3,3-difluoroazetidin-1-yl)cyclohexyl)-8-(1H-imidazol-1-yl)-[1,2,4]triazolo[1,5-a]pyrazine-6-carboxamide] were no more than 0.04 µM and 0.2.
`O=C(N[C@H]1CC[C@H](N2CCC(F)(F)C2)CC1)c1cn2ncnc2c(-n2ccnc2)n1` [Example 48, N-((1r,4r)-4-(3,3-difluoropyrrolidin-1-yl)cyclohexyl)-8-(1H-imidazol-1-yl)-[1,2,4]triazolo[1,5-a]pyrazine-6-carboxamide]: the IC50 in series [1] is no more than 0.1 µM. Besides, in series [2], the unbound share (fraction unbound) at 4 h amounted to 0.24.

Source of the values: patent publication US20260224582A1, “Heterobicyclic amides as inhibitors of CD38” (Cerevance, Inc., priority 2022, published 2026).
